In one series the target is T1, human GLP-1 receptor (Homo sapiens, UniProt P43220).
T1 construct: expressed in transfected cells; host or cells: BHK (parent line BHKTS13), clone BHK CRE luc2P hGLP-1R
The experiment in a line: In vitro functional potency, CRE luciferase reporter gene assay, whole BHK cells expressing hGLP-1R. Type of series: cell-based. The note with it: BHK CRE luc2P hGLP-1R cells. (Reporter assays use an easily measured gene product as a stand-in for the process of interest.)

Another series concerns the target T2, human GIP receptor (Homo sapiens, UniProt P48546).
T2 construct: expressed in transfected cells; host or cells: BHK (parent line BHKTS13), clone BHK CRE luc2P hGIPR
T2 sequence (P48546 22-466): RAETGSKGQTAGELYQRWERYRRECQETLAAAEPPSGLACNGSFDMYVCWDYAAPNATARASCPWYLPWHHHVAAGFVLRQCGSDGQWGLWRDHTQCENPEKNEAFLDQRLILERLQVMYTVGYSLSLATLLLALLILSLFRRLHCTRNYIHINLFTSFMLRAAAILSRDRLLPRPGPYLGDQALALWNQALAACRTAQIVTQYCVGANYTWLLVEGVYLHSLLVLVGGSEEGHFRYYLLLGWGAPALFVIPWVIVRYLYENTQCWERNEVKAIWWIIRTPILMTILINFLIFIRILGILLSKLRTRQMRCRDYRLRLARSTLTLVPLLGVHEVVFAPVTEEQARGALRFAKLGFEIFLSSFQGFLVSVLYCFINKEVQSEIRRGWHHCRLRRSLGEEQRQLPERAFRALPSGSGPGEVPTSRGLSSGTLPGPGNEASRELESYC
The experiment in a line: In vitro functional potency, CRE luciferase reporter gene assay, whole BHK cells expressing hGIPR. The series is classed as cell-based. The note with it: BHK CRE luc2P hGIPR cells.

Series [1] is described as follows: Pharmacokinetic study in minipigs after i.v. administration. The note with it: female, Gottingen, minipig, in vivo, iv. On the procedure:
The purpose of this example is to determine the half-life in vivo of the derivatives of the present invention after i.v. administration to minipigs, i.e. the prolongation of their time in the body and thereby their time of action. This is done in a pharmacokinetic (PK) study, where the terminal half-life of the derivative in question is determined. By terminal half-life is generally meant the period of time it takes to halve a certain plasma concentration, measured after the initial distribution phase.
Female Gottingen minipigs were obtained from Ellegaard Gottingen Minipigs (Dalmose, Denmark) approximately 7-14 months of age and weighing from approximately 16-35 kg were used in the studies. The minipigs were housed individually and fed restrictedly once daily with SDS minipig diet (Special Diets Services, Essex, UK).
After at 3 weeks of acclimatisation two permanent central venous catheters were implanted in vena cava caudalis in each animal. […]
Plasma was pipetted into Micronic tubes on dry ice and kept at −20° C. until analysed for plasma concentration of the compounds using ELISA, or a similar antibody-based assay, or LCMS. Individual plasma concentration-time profiles were analysed by a non-compartmental model in Phoenix WinNonLin ver. […] (Pharsight Inc., Mountain View, Calif., USA), and the resulting terminal half-lives (harmonic mean) determined.

Where two headings read alike, the source gives them in different places. Starred links: 1 amine or outer side, 2 acyl side, 3 side chain; linkers in the order of their positions; H or OH if unused. Non-standard residues stand in square brackets, D forms with d. Residues, ends and D or L forms follow the SMILES beside them. Groups on a side chain read outwards from the residue. *: point of attachment. C18 diacid = O=C(O)CCCCCCCCCCCCCCCCC(=O)*; γGlu = O=C(O)[C@H](CCC(=O)[*:2])N[*:1]; εLys = N[C@@H](CCCCN[*:1])C(=O)[*:2]; Aib = CC(C)(N)C(=O)O

T1 sequence (P43220 24-463): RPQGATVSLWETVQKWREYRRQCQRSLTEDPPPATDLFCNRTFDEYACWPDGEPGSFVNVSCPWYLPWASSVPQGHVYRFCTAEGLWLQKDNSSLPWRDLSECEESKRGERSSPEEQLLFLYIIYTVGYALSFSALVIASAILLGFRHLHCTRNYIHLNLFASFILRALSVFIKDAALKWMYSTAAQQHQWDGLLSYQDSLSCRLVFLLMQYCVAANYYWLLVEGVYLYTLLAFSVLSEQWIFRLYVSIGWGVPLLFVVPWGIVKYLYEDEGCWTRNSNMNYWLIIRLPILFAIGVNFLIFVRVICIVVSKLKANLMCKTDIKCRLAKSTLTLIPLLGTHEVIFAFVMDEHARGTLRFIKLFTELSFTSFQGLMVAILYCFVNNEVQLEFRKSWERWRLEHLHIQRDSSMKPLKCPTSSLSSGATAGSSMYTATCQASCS

Broadly, the EC50 is the concentration needed to bring the measured effect to its halfway point. A word on the half-life: it is the time in which the quantity being followed falls by half. A higher half-life goes with slow decline. As to `CC[C@H](C)[C@H](NC(=O)[C@H](Cc1ccccc1)NC(=O)[C@H](CCC(=O)O)NC(=O)[C@H](CCCNC(=N)N)NC(=O)[C@H](C)NC(=O)[C@H](C)NC(=O)[C@H](CCC(N)=O)NC(=O)[C@H](CCCCNC(=O)[C@@H](N)CCCCNC(=O)[C@@H](N)CCCCNC(=O)CC[C@H](NC(=O)CCCCCCCCCCCCCCCCC(=O)O)C(=O)O)NC(=O)[C@H](CCC(=O)O)NC(=O)[C@H](CC(C)C)NC(=O)[C@H](CC(C)C)NC(=O)[C@@H](NC(=O)[C@H](CO)NC(=O)[C@H](Cc1ccc(O)cc1)NC(=O)[C@H](CC(=O)O)NC(=O)[C@H](CO)NC(=O)[C@@H](NC(=O)[C@H](Cc1ccccc1)NC(=O)[C@@H](NC(=O)CNC(=O)[C@H](CCC(=O)O)NC(=O)C(C)(C)NC(=O)[C@@H](N)Cc1ccc(O)cc1)[C@@H](C)O)[C@@H](C)O)[C@@H](C)CC)C(=O)N[C@@H](CC(N)=O)C(=O)N[C@@H](Cc1c[nH]c2ccccc12)C(=O)N[C@@H](CC(C)C)C(=O)N[C@@H](CC(C)C)C(=O)N[C@@H](C)C(=O)NCC(=O)NCC(=O)N1CCC[C@H]1C(=O)N[C@@H](CO)C(=O)N[C@@H](CO)C(=O)NCC(=O)N[C@@H](C)C(=O)N1CCC[C@H]1C(=O)N1CCC[C@H]1C(=O)N1CCC[C@H]1C(=O)N[C@@H](CO)C(=O)O` [Compound No. 15] (H-Y[Aib]EGTFTSDYSILLEK([εLys-εLys-γGlu-C18 diacid])QAAREFINWLLAGGPSSGAPPPS-OH), the EC50 was found to be 5 pM on human GLP-1 receptor (0% HSA, read-out: hGLP-1R, CRE Luc 0% HSA EC50); 130 pM at human GLP-1 receptor (hGLP-1R, CRE Luc 1% HSA EC50, 1% HSA); 7.1 pM at human GIP receptor (0% HSA, read-out: hGIPR, CRE Luc 0% HSA EC50); 138 pM on human GIP receptor (hGIPR, CRE Luc 1% HSA EC50, 1% HSA). Also, the half-life in series [1] was 36 h.

The values are drawn from patent US20230120597A1, “CO-AGONISTS AT GLP-1 AND GIP RECEPTORS SUITABLE FOR ORAL DELIVERY” (Novo Nordisk A/S, priority 2020, published 2023).
